{"source": "patent US9738659B2", "about": "“Compositions of protein receptor tyrosine kinase inhibitors” (Purdue Pharma L.P., priority 2008, dated 2017)", "key": {"[1]": {"tested_on": "CCI rats", "test": "Chronic constriction injury (CCI) model of neuropathic pain in rats", "assay_type": "in vivo, rat", "conditions": "CCI rats after single oral dose", "source_text": "Chronic Constriction Injury (CCI) Model of Neuropathic Pain in Rats.\nThe CCI model is one of the most commonly used mono-neuropathic pain model firstly described in details by Bennett and Xie (Bennett G J, Xie Y K. Pain. 1988; 33(1):87-107). It mimics important clinical chronic pain symptoms such as mechanical allodynia and thermal hyperalgesia. Chronic constriction injury of the sciatic nerve was produced by tying four loose ligatures around the left sciatic nerve according to the method of Bennett and Xie. […] Calibrated von Frey filaments were used to determine the lowest mechanical (tactile) threshold required to evoke a brisk paw withdrawal reflex in the rat hindpaws. Rats were allowed to acclimatize in wire mesh cages for 15-20 min prior to von Frey testing. Assessment of paw withdrawal thresholds (PWTs) using von Frey filaments was undertaken prior to CCI-surgery (pre-surgery baseline on day 0). Before the drug dosing on day 14, the pre-dose baseline was recorded for each rat. […] Drug-naïve CCI-rats (n=4-6 per group) were used. The oral vehicle was 0.5% CMC-Na/0.1% Tween 80 in distilled water. The positive control gabapentin was dissolved in the vehicle and orally given at 100 mg/kg (by oral gavage). Test compound was suspended in the vehicle and orally given at 50 mg/kg and 100 mg/kg. […]"}, "[2]": {"molecular_target": "T1, TrkA (h) (Homo sapiens, UniProt P04629)", "T1 construct": "Recombinant Human Cytoplasmic Domain (amino acids 441-796); His tag; host or cells: insect cells", "T1 sequence (P04629 441-796)": "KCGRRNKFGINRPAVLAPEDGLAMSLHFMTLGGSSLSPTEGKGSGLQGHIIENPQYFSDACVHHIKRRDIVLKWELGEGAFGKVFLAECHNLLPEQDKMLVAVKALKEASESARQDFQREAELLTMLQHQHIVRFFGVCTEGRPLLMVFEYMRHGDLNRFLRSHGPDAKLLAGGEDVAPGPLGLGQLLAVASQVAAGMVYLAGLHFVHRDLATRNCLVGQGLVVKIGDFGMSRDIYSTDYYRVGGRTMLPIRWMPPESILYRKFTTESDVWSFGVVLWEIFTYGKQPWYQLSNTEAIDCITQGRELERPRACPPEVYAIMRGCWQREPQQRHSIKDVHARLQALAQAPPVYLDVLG", "test": "Radiometric based mixed micelle kinase assay", "assay_type": "biochemical", "conditions": "read-out: IC50 antagonizing the TrkA kinase activity", "procedure": "Compound Inhibition in a Radiometric Based Mixed Micelle Assay:\nIn a final reaction volume of 25 μL, TrkA (h) (3 nM) is incubated with the kinase reaction buffer (20 mM HEPES (pH 7.5), 10 mM MgCl2, 1 mM EGTA, 0.02% Brij 35, 0.02 mg/ml BSA, 0.1 mM Na3VO4, 2 mM DTT, 1% DMSO), 0.2 mg/ml substrate PolyEY(4:1) and […], and [33P-ATP] (specific activity approx. 500 cpm/pmol, concentration as required). The reaction is initiated by the addition of the MgATP mix. After incubation for at least 40 minutes at room temperature, the reaction is stopped by the addition of 5 μL of a 3% phosphoric acid solution. 10 μL of the reaction is then spotted onto a P30 filtermat and washed three times for 5 minutes in 75 mM phosphoric acid and once in methanol prior to drying and scintillation counting. TrkA: Recombinant Human Cytoplasmic Domain (amino acids 441-796), Histidine-tagged, expressed in insect cells. Activated in vitro via auto-phosphorylation. Mw=42.8 kDa. Substrates for kinases: poly(EY) for TRKA; poly(EY)(4:1) with 2 mM MnCl2, average Mw=16 kDa Standard conditions (unless otherwise specified): 30 nM TRKA, 0.2 mg/ml poly(EY)+2 mM MnCl2, and 10 μM ([γ-^33P]) ATP. Using the similar assay condition with other kinases of recombinant human cytoplasmic domain, the activities of other kinases could be also measured."}}, "note": "pIC50: −log10 of the molar value.", "data": [{"compound": "NCC1(CC(=O)O)CCCCC1", "note": "[gabapentin]", "values": [{"measurement": "Observed side effects (drowsiness, motor incoordination, other abnormality)", "setting": "[1]", "value": "drowsiness or motor incoordination"}]}, {"compound": "Cc1ccc(Cl)cc1N1CCN(CCCNC(=O)c2ccc3c(c2)NC(=O)C2CCCCN32)CC1", "note": "(centres unmarked) [Compound 201, N-{3-[4-(5-chloro-2-methylphenyl)piperazin-1-yl]propyl}-6-oxo-6,6a,7,8,9,10-hexahydro-5H-pyrido[1,2-a]quinoxaline-3-carboxamide]", "values": [{"measurement": "pIC50", "setting": "[2]", "value": 7.07}]}]}
